Source: patent US6916823B2, “Method of treatment of dopamine-related dysfunction” (Purdue Research Foundation, priority 2001, dated 2005)
Where two headings read alike, the source gives them in different places.

Legend:
[1] = target: T1, rat striatal D1 receptors (Rattus norvegicus, UniProt P18901); experiment: binding affinity to D1 receptors, competition with SCH23390
T1 construct: increase cAMP production in rat striatum and C-6-mD1 cells; from tissue; host or cells: rat striatum (striatal membranes)
T1 sequence (P18901 whole entry): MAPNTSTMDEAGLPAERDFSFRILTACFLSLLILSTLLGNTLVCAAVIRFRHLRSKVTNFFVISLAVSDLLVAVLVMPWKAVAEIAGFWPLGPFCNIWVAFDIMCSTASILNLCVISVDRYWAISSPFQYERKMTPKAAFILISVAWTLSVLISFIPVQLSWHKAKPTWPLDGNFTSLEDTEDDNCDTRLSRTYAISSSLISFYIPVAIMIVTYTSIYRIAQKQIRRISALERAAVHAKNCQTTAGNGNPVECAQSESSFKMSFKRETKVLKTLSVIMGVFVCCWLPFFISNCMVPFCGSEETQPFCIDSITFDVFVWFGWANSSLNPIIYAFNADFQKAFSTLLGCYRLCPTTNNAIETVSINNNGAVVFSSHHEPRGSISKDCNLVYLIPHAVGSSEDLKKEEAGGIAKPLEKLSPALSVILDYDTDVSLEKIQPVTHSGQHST
Description: Experiments have been conducted to determine the binding affinity of dinoxyline to D1 receptors.

D2 receptors = experiment: D2 agonist properties
unilateral 6-OHDA rats [2] = conditions: cited from earlier work; for efficacy in Parkinson's disease models: e.g. unilateral 6-OHDA-lesion rodent model
[3] = tested on: D1 and D2 dopamine receptors; experiment: D1:D2 selectivity; assay type: binding
D1 receptors = target: T2, D1 receptors (Rattus norvegicus, UniProt P18901); experiment: cAMP production in rat striatum; assay type: biochemical; conditions: for agonist activity (intrinsic activity): rat striatum / rat striatal membranes, relative to dopamine
T2 construct: increase cAMP production in rat striatum and C-6-mD1 cells; from tissue; host or cells: rat striatum (striatal membranes)
T2 sequence (P18901 whole entry): as above

[4] = target: T3, cloned expressed primate D1A receptors (Macaca mulatta, UniProt O77680); experiment: cAMP production in C-6-mD1 cells; assay type: cell-based; conditions: for agonist activity (intrinsic activity): C-6-mD1 cells / cloned expressed primate D1A receptors, relative to dopamine
T3 construct: expressed in transfected cells; host or cells: C-6 cells (C-6-mD1)
T3 sequence (O77680 whole entry): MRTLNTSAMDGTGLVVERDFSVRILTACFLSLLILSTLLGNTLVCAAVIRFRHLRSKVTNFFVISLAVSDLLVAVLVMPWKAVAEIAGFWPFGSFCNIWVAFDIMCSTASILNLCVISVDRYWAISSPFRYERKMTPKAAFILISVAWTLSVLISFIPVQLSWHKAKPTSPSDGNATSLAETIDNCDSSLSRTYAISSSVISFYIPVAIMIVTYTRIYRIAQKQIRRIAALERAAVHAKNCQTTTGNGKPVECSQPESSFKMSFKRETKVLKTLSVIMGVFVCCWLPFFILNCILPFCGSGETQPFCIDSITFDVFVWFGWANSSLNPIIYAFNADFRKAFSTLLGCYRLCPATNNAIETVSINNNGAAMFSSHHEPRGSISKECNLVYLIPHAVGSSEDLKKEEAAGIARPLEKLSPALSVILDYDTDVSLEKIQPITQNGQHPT

unilateral 6-OHDA rats [5] = experiment: rat unilateral 6-OHDA rotation model of Parkinson's disease; assay type: in vivo; conditions: for increase in rotation relative to vehicle: 10 h; for rotation during continuous administration: osmotic minipump s.c.
Description: Summary. In the rat unilateral 6-hydroxydopamine (6-OHDA) rotation model of Parkinson's disease, 6-OHDA is infused unilaterally into the medial forebrain bundle, the substantia nigra, or the striatum. […] When challenged with direct-acting dopamine receptor agonists, unilateral 6-OHDA rats turn contralaterally (away from the side of the lesion) because of the increased sensitivity of the postsynaptic dopamine receptors on the lesioned side. The experiments described below examine tolerance induced by the full D1 agonist, dinapsoline, using the 6-OHDA model.
Subjects. Adult male Sprague-Dawley Rats (Hilltop Laboratories, Chatsworth, Calif.), weighing between 280 and 320 grams, were used as subjects. Animals were housed individually with food and water available ad libitum, except as noted below. The light:dark schedule was 12 h:12 h, and testing was performed during the light cycle. All methods adhere to the guidelines in the Guide for the Care and Use of Experimental Animals published by the National Institutes of Health (Pub. 85-23, 1985).
Surgery. Rats were pretreated with 25 mg/kg desipramine (s.c.) approximately 30 minutes before surgery. Rats were anesthetized by inhalation of isoflurane (1.5 to 4.0%) and placed in a stereotaxic apparatus. An infusion cannula was placed in the medial forebrain bundle at the coordinates A.P. −3.8 mm, M.L. −1.5 mm, and D.V. −3.8 mm relative to bregma according to the atlas of Paxinos and Watson (1986). Ten micrograms of 6-OHDA (6-hydroxydopamine; Sigma Chemical Co., St. Louis, Mo.) in a volume of 4 μL was infused at a rate of 0.5 μL/min in a vehicle of 0.01% ascorbate. After a 14-day recovery period, rats were prescreened for rotation in response to d-amphetamine (5 mg/kg) and to apomorphine (0.3 mg/kg) 1 week later. Animals that responded to both d-amphetamine (>800 rotations in 3 h) and apomorphine (>100 rotations in 1 h) were retained for further study.
Testing of compounds began on day 28 postsurgery in each case. A new group of 6-OHDA-lesioned rats was used for each new study. In some studies, rats were implanted with a subcutaneous 14-day osmotic minipump (model 2 ML2, Alza, Palo Alto, Calif.) with a flow rate of 5.0 μL/h. The rats were re-anesthetized with 1.5 to 4% isoflurane, a small incision was made on the back of the neck, and the minipump was placed subcutaneously in the cavity. The incision was closed with sterile wound clips. Before implantation, minipumps were incubated in sterile saline (37° C.) to ensure outflow at the time of implantation. The minipumps were used to administer dinapsoline, or vehicle (50% dimethyl sulfoxide (DMSO), 12.5% ascorbic acid).
Apparatus, Procedure, and Statistics. Rats were tested for rotation in automated rotation chambers (Rotoscan, Accuscan, Columbus, Ohio). The apparatus consisted of a cylindrical Plexiglas chamber 30 cm in diameter in which the animal is fitted to a harness attached to a flexible rod connected to a rotating microswitch. Animals were allowed to habituate to chambers for 30 minutes before drug treatment in each case. Data were collected for 1 to 12 h after injection, using 15 minute time bins. Treatments were compared using one-way and repeated measures of analysis of variance (ANOVA), as appropriate; post hoc analysis was performed with Dunnett's test.
Acute Dinapsoline Administration. Beginning 1 week after the screening dose with apomorphine, subjects (n=12) were tested once per week with dinapsoline (0.02, 0.2, or 2 mg/kg) or vehicle (s.c.) using a counterbalanced design, and rotation behavior was monitored for 10 h. After the final day of testing, rats were euthanized and brains were removed for subsequent assessment of dopamine depletion. In the oral dosing experiments, a separate group of subjects (n=8) received dinapsoline (0.02, 0.2, or 2 mg/kg) or vehicle once per week using a counterbalanced design. Rats were fasted for 16 h before dosing with oral gavage, and rotation behavior was monitored for 10 h.

[6] = in vivo; cited from earlier work
[7] = A-77636 0.3 mg/kg s.c. alone, 3 h

Br.Oc1ccc2c(c1O)Oc1cccc3c1C2CNC3 (racemic) [dinoxyline, (±)-8,9-dihydroxy-1,2,3,11b-tetrahydrochromeno[4,3,2-de]isoquinoline hydrobromide]
affinity for dopamine D1 receptors labeled with [3H]SCH23390 ([1]; compared with dihydrexidine): high affinity
nH of competition curve ([1]; competition with SCH23390): ca. 0.7
Ki ([1]; rat striatal D1 receptors, read-out: K0.5 (affinity)): < 5 nM
D2 agonist properties (D2 receptors): some D2 agonist properties
efficacy in Parkinson's disease models (unilateral 6-OHDA rats [2]): efficacious
D1:D2 selectivity [3]: equally high affinity for both types of receptors
agonist activity (intrinsic activity) (D1 receptors; hydrobromide): full agonist activity
EC50 (D1 receptors; rat striatum, read-out: EC50 in stimulating synthesis of cAMP via D1 receptors): < 30 nM
agonist activity (intrinsic activity) ([4]; hydrobromide): full agonist activity
EC50 ([4]; C-6-mD1 cells, read-out: EC50 in stimulating synthesis of cAMP via D1 receptors): < 30 nM

Oc1cc2c(cc1O)C(c1ccccc1)CNCC2 (single isomer, unassigned; (+)) [(+)-SKF-38393, reference compound]
agonist activity (intrinsic activity) [4]: partial agonist

Oc1cc2c(cc1O)[C@H]1c3ccccc3CN[C@@H]1CC2 (stereo in doubt) [dihydrexidine, (+)-trans-10,11-dihydroxy-5,6,6a,7,8,12b-hexahydrobenzo[a]phenanthridine]
D2 agonist properties (D2 receptors): some D2 agonist properties
efficacy in Parkinson's disease models (unilateral 6-OHDA rats [2]): efficacious
D1:D2 selectivity [3]: ten-fold
agonist activity (intrinsic activity) (D1 receptors): full agonist
agonist activity (intrinsic activity) [4]: full agonist

NC[C@@H]1O[C@H](C23CC4CC(CC(C4)C2)C3)Cc2c1ccc(O)c2O [Compound A-77636, reference compound]
duration of rotation (unilateral 6-OHDA rats [5]; 1 mg/kg s.c.): approximately 18 h
behavioral tolerance (unilateral 6-OHDA rats [5]; 1 mg/kg s.c. once daily for 14 days, 3 h rotation): dramatic behavioral tolerance
rotation on second day of dosing (unilateral 6-OHDA rats [5]; 1 mg/kg s.c. once daily, day 2 vs day 1): significantly less rotation than on the first day
amount of rotation on fourth day of dosing (unilateral 6-OHDA rats [5]; 1 mg/kg s.c. once daily, day 4, complete tolerance): no greater than that seen with vehicle
rotation in naive animals (unilateral 6-OHDA rats [5]; 1 mg/kg s.c., first day): robust rotation
tolerance on day 3 challenge (unilateral 6-OHDA rats [5]; A-77636 0.3 mg/kg s.c. alone after 2 days A-77636 with or without quinpirole): equal tolerance in both groups
rotational response day 1 (unilateral 6-OHDA rats [5]; [7]): maximal rotational response
tolerance by day 2 (unilateral 6-OHDA rats [5]; [7]): significant tolerance
plasma half-life [6]: > 6 h
duration of action (unilateral 6-OHDA rats [2]; Asin and Wirtshafter, 1993): 18 h
D1:D2 selectivity [3]: more strongly D1 selective than dinapsoline

CN1CCc2cc(Cl)c(O)cc2[C@@H](c2ccccc2)C1 [SCH-23390, reference compound]
duration of action (unilateral 6-OHDA rats [5]; in our assay): approximately 3 h

Oc1ccc2c(c1O)Cc1cccc3c1[C@H]2CNC3 [dinapsoline]
increase in rotation relative to vehicle (unilateral 6-OHDA rats [5]; 0.02 mg/kg s.c.): but not at 0.02 mg/kg
duration of rotation (unilateral 6-OHDA rats [5]; 0.2 mg/kg s.c.): about 5 h
increase in rotation relative to vehicle (unilateral 6-OHDA rats [5]; 0.2 mg/kg s.c.): Statistically significant increases
duration of rotation (unilateral 6-OHDA rats [5]; 2 mg/kg oral): 7 h
increase in rotation versus baseline (unilateral 6-OHDA rats [5]; 2 mg/kg oral): significantly different from baseline
change in rotational response over time (unilateral 6-OHDA rats [5]; 2 mg/kg s.c. once daily, 14 days): significant increase in response over time
behavioral tolerance (unilateral 6-OHDA rats [5]; 2 mg/kg s.c. once or twice daily, 14 days): no evidence for behavioral tolerance
change in rotational response over time (unilateral 6-OHDA rats [5]; 2 mg/kg s.c. twice daily, 14 days): significant increase in response over time
increase in rotation relative to vehicle (unilateral 6-OHDA rats [5]; 2.0 mg/kg s.c.): Statistically significant increases
rotational behavior (cumulative rotation over 10 h) (unilateral 6-OHDA rats [5]; acute 0.02, 0.2, 2 mg/kg s.c.): robust, dose-dependent rotational behavior
rotation (cumulative over 10 h) (unilateral 6-OHDA rats [5]; acute oral 0.02, 0.2, 2 mg/kg, response not dose-dependent): robust rotation
rotation after challenge dose 0.2 mg/kg s.c. on day 14 (unilateral 6-OHDA rats [5]; after 0.6 mg/kg/day by minipump): no rotation
rotation after challenge dose 0.2 mg/kg s.c. on day 14 (unilateral 6-OHDA rats [5]; after 6 mg/kg/day by minipump): no rotation
difference between groups on dinapsoline-alone challenge (unilateral 6-OHDA rats [5]; day 7, after 6 days dinapsoline with or without raclopride): no difference was observed
rotation during continuous administration (unilateral 6-OHDA rats [5]; highest dose (6 mg/kg/day)): brief behavioral response to which complete tolerance developed by 24 h
rotation during continuous administration (unilateral 6-OHDA rats [5]; lower doses (0.006, 0.06, 0.6 mg/kg/day)): no evidence of rotation
D2 agonist properties (D2 receptors): some D2 agonist properties
efficacy in Parkinson's disease models (unilateral 6-OHDA rats [2]): efficacious
D1:D2 selectivity [3]: five-fold

CCN1CCC[C@H]1CNC(=O)c1c(O)c(Cl)cc(Cl)c1OC [raclopride, reference compound]
effect of daily coadministration on rotational response to dinapsoline (unilateral 6-OHDA rats [5]; raclopride 2 mg/kg s.c. with dinapsoline 2 mg/kg s.c., days 1 through 6): no significant difference
effect of antagonist pretreatment on rotational response to dinapsoline (unilateral 6-OHDA rats [5]; raclopride 2 mg/kg s.c., dinapsoline 0.2 mg/kg s.c., 3 h): did not reduce
effect of antagonist pretreatment on rotational response to dinapsoline (unilateral 6-OHDA rats [5]; raclopride 2 mg/kg s.c., dinapsoline 2 mg/kg s.c., 3 h): did not reduce
effect on rotation produced by quinpirole (unilateral 6-OHDA rats [5]; raclopride 2 mg/kg s.c., quinpirole 0.25 mg/kg s.c., data not shown): blocked completely
